Data: patent US20210330606A1, “GLUCOSE CONSUMPTION ACCELERATOR AND GLYCOLYSIS ACCELERATOR” (SHINKO SANGYO Co., Ltd., priority 2018, published 2021)

Assays:
[1] = tested on: Rat-derived fibroblasts (Py-3Y1-S2, subculture strain); test: Glucose consumption of rat-derived fibroblasts (relative value, control = 100); type: cell-based
Source text: As drugs, 2-amino-1-cyclohexylethanol (Matrix Biochemicals), 2-aminoethanol (Tokyo Chemical Industry Co., Ltd.), 1-amino-2-propanol (Wako Pure Chemical Industries, Ltd.), 2-amino-1-phenylethanol (Tokyo Chemical Industry Co., Ltd.), 1, 3-bis[tris(hydroxymethyl)-methylamino]propane (Tokyo Chemical Industry Co., Ltd.), N-cyclohexylethanolamine (Tokyo Chemical Industry Co., Ltd.), diethanolamine (Wako Pure Chemical Industries, Ltd.), diethylamine (Wako Pure Chemical Industries, Ltd.), dipropylamine (Tokyo Chemical Industry Co., Ltd.), HEPES sodium salt (MP Biomedicals), metoprolol tartrate (Tokyo Chemical Industry Co., Ltd.), morpholine (Wako Pure Chemical Co., Ltd.), octopamine (MP Biomedicals), propylamine (Tokyo Chemical Industry Co., Ltd.), triethylamine (Wako Pure Chemical Co., Ltd.), timolol maleate (Wako Pure Chemical Industries, Ltd.) and tris(hydroxymethyl)aminomethane (Wako Pure Chemical Industries, Ltd.) were used. Each drug was dissolved in distilled water to prepare a sample.
In the culture, DMEM (Nissui Pharmaceutical Co., Ltd.) was used as a culture medium. […] As a control of the drug, the culture was performed in the same manner except that distilled water to which the drug was not added was added to the culture solution instead of the sample.
After the addition of the drug, the glucose concentration of each of the culture solutions was measured immediately after the start of the culture and after the completion of the culture. The glucose concentration was measured using a glucose assay kit (Waco). Then, the glucose concentration after the completion of the culture was divided by the glucose concentration immediately after the start of the culture (5.6 mmol per liter) to calculate the glucose consumption.
The fibroblasts were cultured. […] Streptozotocin, alloxan, and nicotinamide are drugs all known to produce symptoms of diabetes when administered to the body.
Next, samples of streptozotocin, alloxan, and nicotinamide plus 2-amino-1-phenylethanol (2-A-1-P) were prepared in the same manner. The concentration of 2-A-1-P was 1 mg/ml. The relative value of the glucose consumption was calculated in the same manner.
The fibroblasts were cultured.
The concentration of 2-A-1-P was 0.5 mg/ml. The relative value of the glucose consumption was calculated in the same manner.

[2] = tested on: Rat-derived fibroblasts (Py-3Y1-S2, subculture strain); test: Lactate concentration in culture solution of fibroblasts (relative value, control = 100); type: cell-based; details: drug 1 mg/ml, control = 100 (FIG. 7A)
Procedure: (§1) First, samples of 2-amino-1-cyclohexylethanol and 2-amino-1-phenylethanol were prepared in the same manner as in Example 1. The fibroblasts and the liver cancer cells were cultured under the same conditions as in Examples 1 and 5. […] As a control, the culture was performed in the same manner except that distilled water to which the drug was not added was added to the culture solution instead of the sample.
(§2) After the addition of the drug, the culture solution was diluted so that the weight ratio of the culture solution to distilled water was 1:19, and the lactate concentration of the diluted culture solution was measured. The lactate concentration was measured using a lactate assay kit (product name: Lactate Assay Kit-WST, product of Dojindo Laboratories).

[3] = tested on: rat-derived liver cancer cells (Ry121B, subculture line); test: Lactate concentration in culture solution of liver cancer cells (relative value, control = 100); type: cell-based; details: drug 1 mg/ml, control = 100 (FIG. 7B)
Procedure: as §1, §2

[4] = tested on: Py-3Y1-S2, TE-13, VERO and HepG2 cells; test: Lactate concentration after 24 to 48 hours culture, mean over four cell types (Example 8); type: cell-based, rat, human, African green monkey; details: drug 0.5 mg/ml, mean of five experiments in four cell types
Procedure: as §2
First, a sample of 2-amino-1-cyclohexylethanol (2-amino-1-cyclohexyl EOH) was prepared in the same manner as in Example 1. In addition to the rat-derived fibroblasts (Py-3Y1-S2, subculture line), human-derived esophageal cancer cells (TE-13, subculture line), African green monkey-derived kidney epithelial cells (VERO, subculture line), and human-derived hepatocellular cancer cells (HepG2, subculture line) were used and cultured under the same conditions as in Example 1. […] Thereafter, the culture solutions were further cultured for 24 to 48 hours. The culture time after the addition of the sample was set to the same condition for each cell. As a control 1, the culture was performed in the same manner except that distilled water to which the drug was not added was added to the culture solution instead of the sample. […] Then, the lactate concentration in each sample was measured in the same manner as in Example 6. […]

[5] = tested on: Py-3Y1-S2, TE-13, VERO and HepG2 cells; test: Lactate concentration after 2 to 3 days culture, lactate metabolism, mean over four cell types (Example 9); type: cell-based, rat, human, African green monkey
Procedure: as §2
First, samples of 2-amino-1-cyclohexylethanol (2-amino-1-cyclohexyl EOH) and 2-amino-1-phenylethanol (2-amino-1-phenyl EOH) were prepared in the same manner as in Example 1. Four types of cells were used as in Example 8, and each of the cells was cultured under the same conditions as in Example 1. […] Thereafter, the culture time was lengthened to 2 to 3 days (48 to 72 hours) compared to Example 8. As a control 1, the culture was performed in the same manner except that distilled water to which the drug was not added was added to the culture solution instead of the sample. As a control 2, the culture was performed in the same manner as the […] except that a sample of biguanide prepared in the same manner as in Example 1 was added to the culture solution instead of the sample. Then, the lactate concentration in each sample was measured in the same manner as in Example 6. Each of the four cells was used for a total of four experiments.

[6] = tested on: rat-derived liver cancer cells (Ry121B, subculture line); details: drug 1 mg/ml, control = 100
[7] = fibroblasts, drug 0.5 mg/ml, 12 to 24 hours, control = 100 (FIG. 1A, 2A)
[8] = fibroblasts, drug 1 mg/ml, 12 to 24 hours, control = 100 (FIG. 1B, 2B)
[9] = Example 3, fibroblasts, drug alone 1 mg/ml, control = 100

Compound	relative value of glucose consumption [1, 7]	relative value of glucose consumption [1, 8]	also measured
OCCNCCO [diethanolamine]	significantly increased glucose consumption	significantly increased glucose consumption	–
concanavalin A [reference compound]	–	–	relative value of glucose consumption ([1]; Example 4, fibroblasts, ConA alone 100 μg/ml): about 120
NCC(O)C1CCCCC1 (stereo not shown) [2-amino-1-cyclohexylethanol]	significantly increased glucose consumption	significantly increased glucose consumption	relative value of glucose consumption ([1]; Example 2, fibroblasts, drug 0.1 mg/ml, control = 100): about 120; relative value of glucose consumption ([1]; Example 2, fibroblasts, drug 0.25 mg/ml, control = 100): about 130; relative value of glucose consumption ([1]; Example 2, fibroblasts, drug 0.5 mg/ml, control = 100): about 150; relative value of lactate concentration [2]: about 145; relative value of lactate concentration [3]: about 140; lactate concentration in the culture solution [4]: 9.35 mmol/L; lactate concentration in the culture solution compared to control 1 ([5]; drug 0.5 mg/ml, 2 to 3 days (48 to 72 hours) culture, mean of four experiments): equivalent to that of control 1; relative value of glucose consumption [6]: about 145
[O]=[V](=[O])[O][V](=[O])=[O] [V2O5, reference compound]	–	–	relative value of glucose consumption ([1]; Example 4, fibroblasts, drug alone, vanadium final concentration 1.0 mg/ml (V2O5 not printed separately)): about 115
OCCNC1CCCCC1 [N-cyclohexylethanolamine]	significantly increased glucose consumption	significantly increased glucose consumption	–
CN(N=O)C(=O)N[C@H]1C(O)O[C@H](CO)[C@@H](O)[C@@H]1O (mixture of isomers) [streptozotocin, reference compound]	–	–	relative value of glucose consumption [1, 9]: about 90
NC(=O)c1cccnc1 [nicotinamide, reference compound]	–	–	relative value of glucose consumption [1, 9]: about 85
COCCc1ccc(OCC(O)CNC(C)C)cc1.COCCc1ccc(OCC(O)CNC(C)C)cc1.O=C(O)C(O)C(O)C(=O)O (stereo not shown) [metoprolol tartrate, reference compound]	significantly increased glucose consumption	significantly increased glucose consumption	–
tris(hydroxymethyl)aminomethane	significantly increased glucose consumption	significantly increased glucose consumption	–
O=S(=O)([O-])CCN1CCN(CCO)CC1.[Na+] [HEPES sodium salt]	significantly increased glucose consumption	significantly increased glucose consumption	–
CCCN [propylamine]	significantly increased glucose consumption	significantly increased glucose consumption	–
C1COCCN1 [morpholine]	significantly increased glucose consumption	significantly increased glucose consumption	–
CC(O)CN (stereo not shown) [1-amino-2-propanol]	significantly increased glucose consumption	–	–
OCC(CO)(CO)NCCCNC(CO)(CO)CO [1,3-bis[tris(hydroxymethyl)methylamino]propane]	–	significantly increased glucose consumption	–
CCNCC [diethylamine]	significantly increased glucose consumption	significantly increased glucose consumption	–
N=C(N)NC(=N)N [biguanide, reference compound]	–	–	lactate concentration in the culture solution [4]: increased the lactate concentration; lactate concentration relative to Control 1 ([5]; 2 to 3 days culture after addition of biguanide, P<0.05): about 3.5 times
CC(C)(C)NC[C@H](O)COc1nsnc1N1CCOCC1.O=C(O)/C=C\C(=O)O [timolol maleate, reference compound]	significantly increased glucose consumption	significantly increased glucose consumption	–
O=C1NC(=O)C(=O)C(=O)N1 [alloxan, reference compound]	–	–	relative value of glucose consumption [1, 9]: about 70
NCCO [2-aminoethanol]	significantly increased glucose consumption	significantly increased glucose consumption	–
CCCNCCC [dipropylamine]	significantly increased glucose consumption	significantly increased glucose consumption	–
CCN(CC)CC [triethylamine]	significantly increased glucose consumption	significantly increased glucose consumption	–
